# Assay results: patent US12077503B2, “Substituted cyclic amides and their use as herbicides” (FMC CORPORATION, priority 2015, dated 2024)
# How the values were obtained:
# Format in all cases: in vivo
# [1] = tested on: barnyardgrass (Echinochloa crus-galli); experiment: Test G Pre-Emergence Protocol; settings: Echinochloa crus-galli, pre-emergence, 312 h, evaluated after 13 days; for pest or weed control at 15.625 g/ha: 15.625 g ai/ha, read-out: Barnyard grass damage rating (100=total damage to plant; 0=no damage to plant); for pest or weed control at 62.5 g/ha: 62.5 g ai/ha, 100=total damage to plant, 0=no damage to plant, read-out: plant damage rating, Barnyardgrass; for pest or weed control at 250 g/ha: 250 g ai/ha, read-out: Barnyardgrass damage rating (100=total damage to plant; 0=no damage to plant)
# In short: (§1)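 Glasshouse pre-emergence test: soil-sown seeds, sprayed after 1 d at 15.625, 62.5 or 250 g/ha. Conditions 24/16° C day/night, 14 h light, 65% humidity, watering twice daily. Rating 13 d post-spray (100 = total damage).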
# [2] = tested on: corn (Zea mays); experiment: Test G Pre-Emergence Protocol; settings: Zea mays, pre-emergence, 312 h, evaluated after 13 days; for plant injury at 15.625 g/ha: 15.625 g ai/ha; for plant injury at 15.625 g/ha / plant injury at 250 g/ha: read-out: Corn damage rating (100=total damage to plant; 0=no damage to plant); for plant injury at 62.5 g/ha: 62.5 g ai/ha, 100=total damage to plant, 0=no damage to plant, read-out: plant damage rating, Corn; for plant injury at 250 g/ha: 250 g ai/ha
# In short: as §1
# [3] = tested on: giant foxtail (Setaria faberi); experiment: Test G Pre-Emergence Protocol; settings: Setaria faberi, pre-emergence, 312 h, evaluated after 13 days; for pest or weed control at 15.625 g/ha: 15.625 g ai/ha; for pest or weed control at 15.625 g/ha / pest or weed control at 250 g/ha: read-out: Foxtail, Giant damage rating (100=total damage to plant; 0=no damage to plant); for pest or weed control at 62.5 g/ha: 62.5 g ai/ha, 100=total damage to plant, 0=no damage to plant, read-out: plant damage rating, Foxtail, Giant; for pest or weed control at 250 g/ha: 250 g ai/ha
# In short: as §1
# [4] = tested on: ivy-leaved morning glory (Ipomoea hederacea); experiment: Test G Pre-Emergence Protocol; settings: Ipomoea, pre-emergence, 312 h, evaluated after 13 days; for pest or weed control at 15.625 g/ha: 15.625 g ai/ha, read-out: Morning-glory, Ivy-leaved damage rating (100=total damage to plant; 0=no damage to plant); for pest or weed control at 62.5 g/ha: 62.5 g ai/ha, 100=total damage to plant, 0=no damage to plant, read-out: plant damage rating, Morningglory, Ivy-leaved; for pest or weed control at 250 g/ha: 250 g ai/ha, read-out: Morningglory, Ivy-leaved damage rating (100=total damage to plant; 0=no damage to plant)
# In short: as §1
# [5] = tested on: redroot pigweed (Amaranthus retroflexus); experiment: Test G Pre-Emergence Protocol; settings: Amaranthus retroflexus, pre-emergence, 312 h, evaluated after 13 days; for pest or weed control at 15.625 g/ha: 15.625 g ai/ha; for pest or weed control at 15.625 g/ha / pest or weed control at 250 g/ha: read-out: Pigweed, Redroot damage rating (100=total damage to plant; 0=no damage to plant); for pest or weed control at 62.5 g/ha: 62.5 g ai/ha, 100=total damage to plant, 0=no damage to plant, read-out: plant damage rating, Pigweed, Redroot; for pest or weed control at 250 g/ha: 250 g ai/ha
# In short: as §1
# [6] = tested on: velvetleaf (Abutilon theophrasti); experiment: Test G Pre-Emergence Protocol; settings: Abutilon theophrasti, pre-emergence, 312 h, evaluated after 13 days; for pest or weed control at 15.625 g/ha: 15.625 g ai/ha; for pest or weed control at 15.625 g/ha / pest or weed control at 250 g/ha: read-out: Velvetleaf damage rating (100=total damage to plant; 0=no damage to plant); for pest or weed control at 62.5 g/ha: 62.5 g ai/ha, 100=total damage to plant, 0=no damage to plant, read-out: plant damage rating, Velvetleaf; for pest or weed control at 250 g/ha: 250 g ai/ha
# In short: as §1
# [7] = tested on: barnyardgrass (Echinochloa crus-galli); experiment: Test G Post-Emergence Protocol; settings: Echinochloa crus-galli, post-emergence, 312 h; for pest or weed control at 15.625 g/ha: 15.625 g ai/ha, evaluated after 13 days (100=total damage to plant; 0=no damage to plant), read-out: Barnyardgrass damage rating; for pest or weed control at 62.5 g/ha: 62.5 g ai/ha, read-out: Barnyardgrass damage rating (100=total damage to plant; 0=no damage to plant); for pest or weed control at 62.5 g/ha / pest or weed control at 250 g/ha: evaluated after 13 days; for pest or weed control at 250 g/ha: 250 g ai/ha, read-out: damage to plant, Barnyardgrass (100=total damage to plant; 0=no damage to plant)
# In short: (§2)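 Pot-grown seedlings, 8 days old, raised in a glasshouse at 24/16 °C day/night with 14 h light and 65% humidity, were sprayed post-emergence with test compound in acetone/water (50:50) plus 0.5% Tween 20 at 15.625, 62.5 or 250 g/ha. Damage was scored visually 13 days later on a 0–100 scale (100 = total damage).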
# [8] = tested on: corn (Zea mays); experiment: Test G Post-Emergence Protocol; settings: Zea mays, post-emergence, 312 h; for plant injury at 15.625 g/ha: 15.625 g ai/ha, evaluated after 13 days (100=total damage to plant; 0=no damage to plant), read-out: Corn damage rating; for plant injury at 62.5 g/ha: 62.5 g ai/ha, read-out: Corn damage rating (100=total damage to plant; 0=no damage to plant); for plant injury at 62.5 g/ha / plant injury at 250 g/ha: evaluated after 13 days; for plant injury at 250 g/ha: 250 g ai/ha, read-out: damage to plant, Corn (100=total damage to plant; 0=no damage to plant)
# In short: as §2
# [9] = tested on: giant foxtail (Setaria faberi); experiment: Test G Post-Emergence Protocol; settings: Setaria faberi, post-emergence, 312 h; for pest or weed control at 15.625 g/ha: 15.625 g ai/ha, evaluated after 13 days (100=total damage to plant; 0=no damage to plant), read-out: Foxtail, Giant damage rating; for pest or weed control at 62.5 g/ha: 62.5 g ai/ha, read-out: Foxtail, Giant damage rating (100=total damage to plant; 0=no damage to plant); for pest or weed control at 62.5 g/ha / pest or weed control at 250 g/ha: evaluated after 13 days; for pest or weed control at 250 g/ha: 250 g ai/ha, read-out: damage to plant, Foxtail, Giant (100=total damage to plant; 0=no damage to plant)
# In short: as §2
# [10] = tested on: ivy-leaved morning glory (Ipomoea hederacea); experiment: Test G Post-Emergence Protocol; settings: Ipomoea, post-emergence, 312 h; for pest or weed control at 15.625 g/ha: 15.625 g ai/ha, evaluated after 13 days (100=total damage to plant; 0=no damage to plant), read-out: Morningglory, Ivy-leaved damage rating; for pest or weed control at 62.5 g/ha: 62.5 g ai/ha, read-out: Morningglory, Ivy-leaved damage rating (100=total damage to plant; 0=no damage to plant); for pest or weed control at 62.5 g/ha / pest or weed control at 250 g/ha: evaluated after 13 days; for pest or weed control at 250 g/ha: 250 g ai/ha, read-out: damage to plant, Morningglory, Ivy-leaved (100=total damage to plant; 0=no damage to plant)
# In short: as §2
# [11] = tested on: redroot pigweed (Amaranthus retroflexus); experiment: Test G Post-Emergence Protocol; settings: Amaranthus retroflexus, post-emergence, 312 h; for pest or weed control at 15.625 g/ha: 15.625 g ai/ha, evaluated after 13 days (100=total damage to plant; 0=no damage to plant), read-out: Pigweed, Redroot damage rating; for pest or weed control at 62.5 g/ha: 62.5 g ai/ha, read-out: Pigweed, Redroot damage rating (100=total damage to plant; 0=no damage to plant); for pest or weed control at 62.5 g/ha / pest or weed control at 250 g/ha: evaluated after 13 days; for pest or weed control at 250 g/ha: 250 g ai/ha, read-out: damage to plant, Pigweed, Redroot (100=total damage to plant; 0=no damage to plant)
# In short: as §2
# [12] = tested on: velvetleaf (Abutilon theophrasti); experiment: Test G Post-Emergence Protocol; settings: Abutilon theophrasti, post-emergence, 312 h; for pest or weed control at 15.625 g/ha: 15.625 g ai/ha, evaluated after 13 days (100=total damage to plant; 0=no damage to plant), read-out: Velvetleaf damage rating; for pest or weed control at 62.5 g/ha: 62.5 g ai/ha, read-out: Velvetleaf damage rating (100=total damage to plant; 0=no damage to plant); for pest or weed control at 62.5 g/ha / pest or weed control at 250 g/ha: evaluated after 13 days; for pest or weed control at 250 g/ha: 250 g ai/ha, read-out: damage to plant, Velvetleaf (100=total damage to plant; 0=no damage to plant)
# In short: as §2
SMILES,pest or weed control at 15.625 g/ha [1],pest or weed control at 62.5 g/ha [1],pest or weed control at 250 g/ha [1],plant injury at 15.625 g/ha [2],plant injury at 62.5 g/ha [2],plant injury at 250 g/ha [2],pest or weed control at 15.625 g/ha [3],pest or weed control at 62.5 g/ha [3],pest or weed control at 250 g/ha [3],pest or weed control at 15.625 g/ha [4],pest or weed control at 62.5 g/ha [4],pest or weed control at 250 g/ha [4],pest or weed control at 15.625 g/ha [5],pest or weed control at 62.5 g/ha [5],pest or weed control at 250 g/ha [5],pest or weed control at 15.625 g/ha [6],pest or weed control at 62.5 g/ha [6],pest or weed control at 250 g/ha [6],pest or weed control at 15.625 g/ha [7],pest or weed control at 62.5 g/ha [7],also measured
COc1cccc(NC(=O)[C@H]2C(=O)N(C)C[C@@H]2c2ccc(C(F)(F)F)cc2)c1C (racemic) [Compound 1446],0%,0%,0%,0%,0%,0%,0%,0%,40%,0%,0%,0%,0%,0%,0%,0%,0%,0%,0%,0%,pest or weed control at 250 g/ha [7]: 0%; plant injury at 15.625 g/ha [8]: 0%; plant injury at 62.5 g/ha [8]: 0%; plant injury at 250 g/ha [8]: 0%; pest or weed control at 15.625 g/ha [9]: 0%; pest or weed control at 62.5 g/ha [9]: 0%; pest or weed control at 250 g/ha [9]: 0%; pest or weed control at 15.625 g/ha [10]: 0%; pest or weed control at 62.5 g/ha [10]: 0%; pest or weed control at 250 g/ha [10]: 0%; pest or weed control at 15.625 g/ha [11]: 0%; pest or weed control at 62.5 g/ha [11]: 0%; pest or weed control at 250 g/ha [11]: 0%; pest or weed control at 15.625 g/ha [12]: 0%; pest or weed control at 62.5 g/ha [12]: 0%; pest or weed control at 250 g/ha [12]: 0%
COc1c(Cl)cccc1NC(=O)[C@H]1C(=O)N(C)C[C@@H]1c1ccc(C(F)(F)F)cc1 (racemic) [Compound 1447],0%,0%,10%,0%,0%,20%,50%,50%,60%,0%,0%,0%,0%,0%,0%,0%,0%,0%,0%,0%,pest or weed control at 250 g/ha [7]: 0%; plant injury at 15.625 g/ha [8]: 0%; plant injury at 62.5 g/ha [8]: 10%; plant injury at 250 g/ha [8]: 10%; pest or weed control at 15.625 g/ha [9]: 10%; pest or weed control at 62.5 g/ha [9]: 20%; pest or weed control at 250 g/ha [9]: 50%; pest or weed control at 15.625 g/ha [10]: 0%; pest or weed control at 62.5 g/ha [10]: 0%; pest or weed control at 250 g/ha [10]: 0%; pest or weed control at 15.625 g/ha [11]: 0%; pest or weed control at 62.5 g/ha [11]: 0%; pest or weed control at 250 g/ha [11]: 0%; pest or weed control at 15.625 g/ha [12]: 0%; pest or weed control at 62.5 g/ha [12]: 0%; pest or weed control at 250 g/ha [12]: 0%
